Experimental data as given in publication PMC6858373 (Scientific Reports, 2019).
Like-named read-outs stand apart in the source and are kept apart here.

Experiments:
[1] = molecular target: T1, FGF14:Nav1.6 C-tail complex (Homo sapiens, UniProt Q92915+Q9UQD0); experiment: Split-luciferase complementation assay (LCA) in Clone V double stable HEK293 cells; type: cell-based; details: for IC50: estimated, 8-point dose response 0.25-30 µM, n = 4 per concentration, library compounds, read-out: IC50
T1 construct: polymerase chain reaction (PCR) amplification of the FGF14 open reading frame (nt 1–855); C-terminal fragment of Nav1.6 (amino acids 1763–1976) fused with CD4ΔC-tail (amino acids 1–395); expressed in transfected cells

[2] = molecular target: full-length P. pyralis luciferase (Photinus pyralis, UniProt P08659, K549A/L550V/N119G/N50D/S548I); type: cell-based
[3] = tested on: Clone V cells
[4] = 30 µM, 384-well, average of primary screening (n = 2), vs on-plate 0.3% DMSO
[5] = CC_NCI screening, biological replicate Set 1, normalized to on-plate 0.3% DMSO controls
[6] = CC_NCI screening, biological replicate Set 1, normalized to on-plate 0.3% DMSO controls (n=16 per plate)
[7] = average of Set 1 and Set 2, normalized to 0.3% DMSO controls
[8] = CC_NCI screening, normalized to on-plate 0.3% DMSO controls
[9] = CC_NCI screening, biological replicate Set 2, normalized to on-plate 0.3% DMSO controls
[10] = CC_NCI screening, biological replicate Set 2, normalized to on-plate 0.3% DMSO controls (n=16 per plate)
[11] = CC_NCI screening, LCA luminescence, biological replicate Set 1, normalized to on-plate 0.3% DMSO controls (n=16 per plate)
[12] = CC_NCI screening, LCA luminescence, biological replicate Set 2, normalized to on-plate 0.3% DMSO controls (n=16 per plate)
[13] = CC_NCI screening, LCA, biological replicate Set 1, normalized to on-plate 0.3% DMSO controls
[14] = CC_NCI screening, LCA, biological replicate Set 2, normalized to on-plate 0.3% DMSO controls
[15] = CC_NCI screening, average of Set 1 and Set 2, normalized to 0.3% DMSO controls
[16] = CC_NCI screening, full-length luciferase counter-screen luminescence, normalized to on-plate 0.3% DMSO controls
[17] = CC_NCI screening, full-length luciferase counter-screen, normalized to on-plate 0.3% DMSO controls

T1 sequence (Q92915 1-252 isoform Q92915-2): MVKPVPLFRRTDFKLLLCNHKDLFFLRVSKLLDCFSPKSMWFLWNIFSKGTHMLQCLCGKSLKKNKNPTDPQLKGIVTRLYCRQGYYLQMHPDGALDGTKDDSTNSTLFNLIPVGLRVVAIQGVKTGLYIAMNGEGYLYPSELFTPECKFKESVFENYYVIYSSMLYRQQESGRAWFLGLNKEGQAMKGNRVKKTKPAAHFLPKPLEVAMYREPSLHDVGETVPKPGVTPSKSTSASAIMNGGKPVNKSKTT
T1 sequence (Q9UQD0 1763-1976 limits assumed): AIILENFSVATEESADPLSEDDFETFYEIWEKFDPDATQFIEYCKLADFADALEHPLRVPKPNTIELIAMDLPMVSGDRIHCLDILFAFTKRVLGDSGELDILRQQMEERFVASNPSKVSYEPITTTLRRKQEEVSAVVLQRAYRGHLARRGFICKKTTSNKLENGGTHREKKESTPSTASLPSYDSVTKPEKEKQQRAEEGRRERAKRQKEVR
full-length P. pyralis luciferase, sequence (P08659 whole entry N50D/N119G/S548I/K549A/L550V, looked up): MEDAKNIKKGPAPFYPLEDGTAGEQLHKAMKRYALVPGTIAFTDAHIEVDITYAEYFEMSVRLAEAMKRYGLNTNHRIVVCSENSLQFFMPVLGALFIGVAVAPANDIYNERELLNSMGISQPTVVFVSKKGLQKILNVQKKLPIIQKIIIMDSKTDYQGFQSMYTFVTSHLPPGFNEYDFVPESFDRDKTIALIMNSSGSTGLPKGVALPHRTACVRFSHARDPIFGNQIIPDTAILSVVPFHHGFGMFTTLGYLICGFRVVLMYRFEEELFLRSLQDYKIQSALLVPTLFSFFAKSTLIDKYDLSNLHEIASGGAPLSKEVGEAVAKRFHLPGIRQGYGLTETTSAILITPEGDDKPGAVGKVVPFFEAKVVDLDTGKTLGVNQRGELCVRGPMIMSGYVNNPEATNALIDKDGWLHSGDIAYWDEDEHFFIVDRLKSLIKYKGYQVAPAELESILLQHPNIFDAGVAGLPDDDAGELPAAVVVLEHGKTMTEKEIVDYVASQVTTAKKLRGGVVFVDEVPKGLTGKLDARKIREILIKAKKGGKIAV

Row | Compound | Split Luciferase Assay %Lum Avg [1, 7] [%] | Luciferase Assay % Lum (full-length luciferase counter-screen) [2, 8] [%] | Luciferase Assay Z-score (full-length luciferase counter-screen) [2, 8] | Toxicity Assay % Fluor (CTB cell viability fluorescence) [3] [%] | Toxicity Assay Z-score (CTB cell viability) [3] | Split Luciferase Assay % Lum Set 1 [1, 11] [%] | Split Luciferase Assay %Lum Set 2 [1, 12] [%] | Split Luciferase Assay Z-score Set 1 [1, 13] | Split Luciferase Assay Z-score Set 2 [1, 14] | Split Luciferase Assay %Lum Avg [1, 15] [%] | Toxicity Assay % Fluor ([3]; human, 16 h, 30 µM) [%] | Toxicity Assay Z-score ([3]; human, 16 h, 30 µM) | Luciferase Assay % Lum [2] [%] | Luciferase Assay Z-score [2] | also measured
1 | Cc1ccc([N+](=O)[O-])cc1S(=O)(=O)N(C)/N=C/c1cnc2ccc(Br)cn12 [PIK 75, reference compound] | 38.11 | 87.68 | -1.58 | 101.60 | 0.22 | – | – | – | – | – | – | – | – | – | Z-score (LCA primary screening) [1, 4]: −5.01; Split Luciferase Assay Z-score Set 1 [1, 5]: -6.21; Split Luciferase Assay % Lum Set 1 [1, 6]: 23.16%; IMin (% Luminescence) ([1]; antagonists, Clone V cells, 384-well, normalized to DMSO): 38.11 % Luminescence; IC50 [1]: 1630 nM
2 | COc1ccc2c(c1OC)N=C(NC(=O)c1cccnc1)N1CCN=C21 [PIK 90] | 92.26 | 102.65 | 0.34 | 101.53 | 0.21 | – | – | – | – | – | – | – | – | – | Split Luciferase Assay Z-score Set 1 [1, 5]: -0.15; Split Luciferase Assay % Lum Set 1 [1, 6]: 98.17%; Split Luciferase Assay Z-score Set 2 [1, 9]: -1.11; Split Luciferase Assay %Lum Set 2 [1, 10]: 86.35%
3 | CO[C@@H]1[C@H](N(C)C(=O)c2ccccc2)C[C@H]2O[C@]1(C)n1c3ccccc3c3c4c(c5c6ccccc6n2c5c31)C(=O)NC4 [PKC412] | – | – | – | – | – | 54.68 | 67.62 | -3.66 | -2.63 | 61.15 | 83.94 | -2.25 | – | – | Luciferase Assay % Lum [2, 16]: 89.50%; Luciferase Assay Z-score [2, 17]: -1.34
4 | CCCS(=O)(=O)Nc1ccc(F)c(C(=O)c2c[nH]c3ncc(Cl)cc23)c1F [PLX4720, reference compound] | – | – | – | – | – | – | – | – | – | – | 93.90 | -0.85 | 79.36 | -2.64 | IMin (% Luminescence) [1]: 36.71 % Luminescence; Split Luciferase Assay % Lum Set 1 [1]: 30.77%; Split Luciferase Assay %Lum Avg [1]: 36.71%; Split Luciferase Assay %Lum Set 2 [1]: 42.65%; Split Luciferase Assay Z-score Set 1 [1]: -5.60; Split Luciferase Assay Z-score Set 2 [1]: -4.67; Z-score (LCA primary screening) [1]: −5.13; IC50 [1]: 2140 nM
5 | Nc1ncnc2c1c(-c1cnc3[nH]ccc3c1)nn2C1CCCC1 [PP121, reference compound] | 48.86 | 124.27 | 3.11 | 111.23 | 1.57 | – | – | – | – | – | – | – | – | – | Z-score (LCA primary screening) [1, 4]: −4.14; Split Luciferase Assay Z-score Set 1 [1, 5]: -4.89; Split Luciferase Assay % Lum Set 1 [1, 6]: 39.46%; Split Luciferase Assay Z-score Set 2 [1, 9]: -3.40; Split Luciferase Assay %Lum Set 2 [1, 10]: 58.26%; Z-score, full-length luciferase assay ([2]; 30 µM, 384-well plates, vs on-plate 0.3% DMSO): 3.11
6 | Cc1ccc(Nc2nccc(N(C)c3ccc4c(C)n(C)nc4c3)n2)cc1S(N)(=O)=O.Cl [Pazopanib hydrochloride] | – | – | – | – | – | 13.37 | 28.09 | -7.00 | -5.85 | 20.73 | – | – | – | – | Luciferase Assay % Lum [2, 16]: 59.40%; Luciferase Assay Z-score [2, 17]: -5.20; Toxicity Assay % Fluor [3]: 92.21%; Toxicity Assay Z-score [3]: -1.09
7 | OC[C@H]1O[C@@H](n2cnc3c2NC=NC[C@H]3O)C[C@@H]1O [Pentostatin] | – | – | – | – | – | – | – | 2.75 | 3.80 | – | 86.56 | -1.88 | 97.96 | -0.26 | Split Luciferase Assay % Lum Set 1 [1]: 134.04%; Split Luciferase Assay %Lum Avg [1]: 140.36%; Split Luciferase Assay %Lum Set 2 [1]: 146.68%
8 | O=C(CCBr)N1CCN(C(=O)CCBr)CC1 [Pipobroman] | – | – | – | – | – | 125.34 | 121.72 | 2.05 | 1.77 | 123.53 | 98.07 | -0.27 | 102.03 | 0.26 | –
9 | c1cc(CN2CCCNCCNCCCNCC2)ccc1CN1CCCNCCNCCCNCC1 [Plerixafor] | – | – | – | – | – | 112.30 | 111.31 | 0.99 | 0.92 | 111.81 | 92.88 | -1.00 | 97.43 | -0.33 | –
10 | O=C(c1ccc(OCCN2CCCCC2)cc1)c1c(-c2ccc(O)cc2)sc2cc(O)ccc12 [Raloxifene] | – | – | – | – | – | 56.86 | 52.02 | -3.49 | -3.90 | 54.44 | 90.90 | -1.27 | – | – | Luciferase Assay % Lum [2, 16]: 91.29%; Luciferase Assay Z-score [2, 17]: -1.12
11 | CC[C@H](CO)Nc1nc(NCc2ccccc2)c2ncn(C(C)C)c2n1 [Roscovitine] | – | – | – | – | – | – | – | – | – | – | – | – | 97.39 | -0.33 | Split Luciferase Assay % Lum Set 1 [1]: 32.94%; Split Luciferase Assay %Lum Avg [1]: 39.88%; Split Luciferase Assay %Lum Set 2 [1]: 46.81%; Split Luciferase Assay Z-score Set 1 [1]: -5.42; Split Luciferase Assay Z-score Set 2 [1]: -4.33; Toxicity Assay % Fluor ([3]; human): 99.28%; Toxicity Assay Z-score ([3]; human): -0.10
12 | C[S+]([O-])c1ccc(-c2nc(-c3ccncc3)c(-c3ccc(F)cc3)[nH]2)cc1 (stereo not drawn) [SB 203580, reference compound] | – | – | – | – | – | – | – | – | – | – | 95.56 | -0.62 | 80.35 | -2.52 | EMax (% Luminescence) [1]: 152.42 % Luminescence; Split Luciferase Assay %Lum Avg [1]: 152.42%; Split Luciferase Assay %Lum Set 2 [1]: 166.45%; Split Luciferase Assay Z-score Set 1 [1]: 3.10; Split Luciferase Assay Z-score Set 2 [1]: 5.41; Z-score (LCA primary screening) [1]: 4.25; dose-dependent behavior in LCA [1]: mild inhibition at lower concentrations (0.5–2 µM) and stimulation at higher concentrations
13 | Cn1cc(C2=C(c3ccc(Cl)cc3Cl)C(=O)NC2=O)c2ccccc21 [SB 216763] | – | – | – | – | – | 88.38 | 106.11 | -0.94 | 0.50 | 97.25 | 101.41 | 0.20 | – | – | Luciferase Assay % Lum [2, 16]: 100.07%; Luciferase Assay Z-score [2, 17]: 0.01
14 | O=C1NC(=O)c2c1c1c3ccccc3n3c1c1c2c2ccccc2n1C1CCC3O1 [SB 218078] | 79.40 | 92.40 | -0.97 | 109.07 | 1.27 | – | – | – | – | – | – | – | – | – | Split Luciferase Assay Z-score Set 1 [1, 5]: -1.55; Split Luciferase Assay % Lum Set 1 [1, 6]: 80.77%; Split Luciferase Assay Z-score Set 2 [1, 9]: -1.79; Split Luciferase Assay %Lum Set 2 [1, 10]: 78.02%
15 | NC(=O)c1ccc(-c2nc(-c3ccc4c(c3)OCO4)c(-c3ccccn3)[nH]2)cc1 [SB 431542] | – | – | – | – | – | 112.30 | 114.43 | 0.99 | 1.17 | 113.37 | 90.72 | -1.30 | – | – | Luciferase Assay % Lum [2, 16]: 93.14%; Luciferase Assay Z-score [2, 17]: -0.88
16 | NC(=O)c1ccc2[nH]ccc2c1 [SD 169] | 121.47 | 109.31 | 1.19 | 104.03 | 0.56 | – | – | – | – | – | – | – | – | – | Split Luciferase Assay Z-score Set 1 [1, 5]: 2.14; Split Luciferase Assay % Lum Set 1 [1, 6]: 126.43%; Split Luciferase Assay Z-score Set 2 [1, 9]: 1.34; Split Luciferase Assay %Lum Set 2 [1, 10]: 116.51%
17 | Fc1ccc(Cl)cc1-c1nc(Nc2ccncc2)c2nccnc2n1 [SD 208] | 95.16 | 88.62 | -1.46 | 107.60 | 1.06 | – | – | – | – | – | – | – | – | – | Split Luciferase Assay Z-score Set 2 [1, 9]: -3.73; Split Luciferase Assay %Lum Set 2 [1, 10]: 54.10%
